Experimental data from ChEMBL document CHEMBL1201862, “PubChem BioAssay data set” (2004).
Activity calls are given as the source filed them.

Legend:
[1] = molecular target: Intestinal-type alkaline phosphatase (Homo sapiens, UniProt P09923); assay: activation of human intestinal alkaline phosphatase – biochemical, dose response (AID 488873); type: functional
[2] = molecular target: Intestinal-type alkaline phosphatase (Mus musculus, UniProt P24822); assay: mouse intestinal alkaline phosphatase activators, dose response, biochemical, luminescence, uHTS hits (AID 488783); type: functional
[3] = molecular target: T1, Alkaline phosphatase, tissue-nonspecific isozyme (Homo sapiens, UniProt P05186); assay: TNAP enzyme activators, dose response, selectivity assay for mouse IAP activator project, biochemical, TNAP isozyme, mouse IAP uHTS hits (AID 488880); type: functional
T1 sequence (P05186 whole entry): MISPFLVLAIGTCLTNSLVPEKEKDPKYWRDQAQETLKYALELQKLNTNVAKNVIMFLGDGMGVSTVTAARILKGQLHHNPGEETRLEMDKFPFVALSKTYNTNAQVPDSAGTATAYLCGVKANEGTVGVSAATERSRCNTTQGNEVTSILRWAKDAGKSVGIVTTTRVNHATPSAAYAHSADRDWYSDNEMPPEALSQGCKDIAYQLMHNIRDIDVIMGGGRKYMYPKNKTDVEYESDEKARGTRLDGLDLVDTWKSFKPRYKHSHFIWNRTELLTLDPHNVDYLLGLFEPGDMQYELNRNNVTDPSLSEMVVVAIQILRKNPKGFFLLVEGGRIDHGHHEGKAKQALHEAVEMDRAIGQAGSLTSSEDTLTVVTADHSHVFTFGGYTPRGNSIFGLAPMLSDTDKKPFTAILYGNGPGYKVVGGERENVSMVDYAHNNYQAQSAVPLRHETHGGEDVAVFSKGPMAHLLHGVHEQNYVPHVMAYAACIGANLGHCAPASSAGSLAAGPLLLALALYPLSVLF

[4] = molecular target: Peroxisome proliferator-activated receptor gamma/Nuclear receptor coactivator 1 (Homo sapiens, UniProt P37231); assay: (§1) TR-FRET dose response biochemical High Throughput Screening assay for agonists of the steroid receptor coactivator 1 (SRC-1) recruitment by the peroxisome proliferator-activated receptor gamma (PPAR gamma): non-selective agonists. [Related pubchem assays (depositor defined):AID1300, AID1808, AID504735, AID631]; type: protein assay
[5] = molecular target: Peroxisome proliferator-activated receptor gamma/Nuclear receptor coactivator 3 (Homo sapiens, UniProt P37231); assay: as §1, with “3 (SRC-3)” for “1 (SRC-1)”, “assays: 1301 (Confirmation screen.), 1048 (Primary screen.)]” for “assays (depositor defined):AID1300, AID1808, AID504735, AID631]”; type: functional
[6] = molecular target: Peroxisome proliferator-activated receptor gamma/Nuclear receptor coactivator 2 (Homo sapiens, UniProt P37231); assay: TR-FRET dose response biochemical High Throughput Screening assay for agonists of the steroid receptor coactivator 2 (SRC-2) recruitment by the peroxisome proliferator-activated receptor gamma (PPAR gamma): non-selective agonists. [Related pubchem assays: 1297, 1032 ]; type: functional
Chain of Peroxisome proliferator-activated receptor gamma/Nuclear receptor coactivator 2 (P37231 whole entry): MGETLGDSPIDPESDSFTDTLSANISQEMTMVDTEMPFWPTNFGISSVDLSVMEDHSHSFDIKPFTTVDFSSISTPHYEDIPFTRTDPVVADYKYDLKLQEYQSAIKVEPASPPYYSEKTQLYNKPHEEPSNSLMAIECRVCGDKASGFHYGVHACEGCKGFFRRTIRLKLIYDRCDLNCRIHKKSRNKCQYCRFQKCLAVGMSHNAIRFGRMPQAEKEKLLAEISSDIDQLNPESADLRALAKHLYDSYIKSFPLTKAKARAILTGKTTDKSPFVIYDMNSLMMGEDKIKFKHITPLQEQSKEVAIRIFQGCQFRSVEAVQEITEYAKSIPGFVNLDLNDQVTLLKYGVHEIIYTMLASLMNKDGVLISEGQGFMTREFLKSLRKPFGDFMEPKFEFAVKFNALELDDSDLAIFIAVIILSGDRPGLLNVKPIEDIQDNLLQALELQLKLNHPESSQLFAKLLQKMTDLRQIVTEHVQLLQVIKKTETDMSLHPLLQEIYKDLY
Chain of Peroxisome proliferator-activated receptor gamma/Nuclear receptor coactivator 2 (Q15596 whole entry, further chain): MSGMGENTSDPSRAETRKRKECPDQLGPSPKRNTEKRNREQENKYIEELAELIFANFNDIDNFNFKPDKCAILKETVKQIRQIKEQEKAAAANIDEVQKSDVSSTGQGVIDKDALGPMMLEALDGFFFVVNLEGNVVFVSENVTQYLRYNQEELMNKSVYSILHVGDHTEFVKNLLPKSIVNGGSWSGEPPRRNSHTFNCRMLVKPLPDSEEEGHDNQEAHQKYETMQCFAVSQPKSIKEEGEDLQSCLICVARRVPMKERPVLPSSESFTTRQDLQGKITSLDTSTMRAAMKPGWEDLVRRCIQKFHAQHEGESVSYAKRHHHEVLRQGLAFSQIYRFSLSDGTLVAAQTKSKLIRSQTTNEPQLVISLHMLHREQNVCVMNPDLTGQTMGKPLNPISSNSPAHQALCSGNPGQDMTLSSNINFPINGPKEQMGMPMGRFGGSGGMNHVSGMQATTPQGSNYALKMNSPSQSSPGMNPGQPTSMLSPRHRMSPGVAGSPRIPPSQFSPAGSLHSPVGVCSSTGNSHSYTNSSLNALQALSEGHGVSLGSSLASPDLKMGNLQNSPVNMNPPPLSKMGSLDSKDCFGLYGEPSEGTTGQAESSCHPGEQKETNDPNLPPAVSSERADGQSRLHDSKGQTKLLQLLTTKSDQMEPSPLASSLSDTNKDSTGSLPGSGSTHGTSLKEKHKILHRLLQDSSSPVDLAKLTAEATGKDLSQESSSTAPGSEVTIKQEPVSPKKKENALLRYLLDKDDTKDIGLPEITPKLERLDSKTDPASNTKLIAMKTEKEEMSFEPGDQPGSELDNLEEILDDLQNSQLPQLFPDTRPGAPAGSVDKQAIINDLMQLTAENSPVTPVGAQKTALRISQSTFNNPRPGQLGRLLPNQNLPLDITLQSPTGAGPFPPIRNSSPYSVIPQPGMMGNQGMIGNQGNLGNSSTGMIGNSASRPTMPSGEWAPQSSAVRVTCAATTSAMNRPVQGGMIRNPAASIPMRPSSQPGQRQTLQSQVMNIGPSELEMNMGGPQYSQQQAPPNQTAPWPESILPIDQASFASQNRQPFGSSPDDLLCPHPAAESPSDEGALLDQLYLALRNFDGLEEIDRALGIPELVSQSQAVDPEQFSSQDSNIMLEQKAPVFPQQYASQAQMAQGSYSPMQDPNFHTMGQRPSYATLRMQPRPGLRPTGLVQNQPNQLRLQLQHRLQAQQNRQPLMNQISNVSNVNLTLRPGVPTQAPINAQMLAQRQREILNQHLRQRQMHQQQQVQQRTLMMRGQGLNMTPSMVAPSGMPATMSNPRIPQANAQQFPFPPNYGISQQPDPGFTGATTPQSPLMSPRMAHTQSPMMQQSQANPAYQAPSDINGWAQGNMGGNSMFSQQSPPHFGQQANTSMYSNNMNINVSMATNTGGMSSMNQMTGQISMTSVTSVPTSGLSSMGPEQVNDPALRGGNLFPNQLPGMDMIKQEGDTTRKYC

Coagulation factor XII = molecular target: T2, Coagulation factor XII (Homo sapiens, UniProt P00748); assay: Factor XIIa Dose Response Confirmation from Single Well HTS. [Related pubchem assays (depositor defined):AID701]; type: functional
T2 sequence (P00748 whole entry): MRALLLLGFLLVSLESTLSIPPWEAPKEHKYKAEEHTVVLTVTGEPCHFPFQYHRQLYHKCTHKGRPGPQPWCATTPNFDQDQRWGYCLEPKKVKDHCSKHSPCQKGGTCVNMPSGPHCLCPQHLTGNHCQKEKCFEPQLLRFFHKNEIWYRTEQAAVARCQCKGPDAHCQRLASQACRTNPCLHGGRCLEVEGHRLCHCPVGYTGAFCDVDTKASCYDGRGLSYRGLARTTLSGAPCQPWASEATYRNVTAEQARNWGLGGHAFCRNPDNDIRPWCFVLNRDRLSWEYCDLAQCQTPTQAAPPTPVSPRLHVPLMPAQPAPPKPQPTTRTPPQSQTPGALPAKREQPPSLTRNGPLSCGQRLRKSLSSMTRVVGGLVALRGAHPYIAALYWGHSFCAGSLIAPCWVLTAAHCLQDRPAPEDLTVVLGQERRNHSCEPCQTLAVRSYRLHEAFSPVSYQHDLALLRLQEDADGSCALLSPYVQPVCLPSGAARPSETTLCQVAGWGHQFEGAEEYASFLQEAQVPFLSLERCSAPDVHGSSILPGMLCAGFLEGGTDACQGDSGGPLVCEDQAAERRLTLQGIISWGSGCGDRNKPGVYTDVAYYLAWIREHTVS

[7] = molecular target: T3, Delta-type opioid receptor (Homo sapiens, UniProt P41143); assay: HTS Image-Based Screen for Antagonists of the DOR Receptor. [Related pubchem assays (depositor defined):AID1777, AID1785, AID1786, AID2133]; type: functional
T3 sequence (P41143 whole entry): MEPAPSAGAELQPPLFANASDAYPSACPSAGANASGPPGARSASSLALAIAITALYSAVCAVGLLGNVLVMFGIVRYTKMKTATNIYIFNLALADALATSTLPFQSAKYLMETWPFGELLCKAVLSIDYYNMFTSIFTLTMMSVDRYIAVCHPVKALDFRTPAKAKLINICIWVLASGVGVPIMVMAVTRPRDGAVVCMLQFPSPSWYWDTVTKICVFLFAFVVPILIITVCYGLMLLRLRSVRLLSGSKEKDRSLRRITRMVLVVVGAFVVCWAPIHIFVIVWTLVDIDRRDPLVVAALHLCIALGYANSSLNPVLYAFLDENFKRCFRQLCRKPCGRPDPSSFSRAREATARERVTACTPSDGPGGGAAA

[8] = inhibitors of firefly luciferase expression or activity, dose response, H4 neuroglioma cells, luminescence (AID 1990); type: functional, cell-based
Mu-type opioid receptor = Mu-type opioid receptor (Homo sapiens, UniProt P35372); assay: HTS Image-Based Screen for Agonists of the MOR Receptor. [Related pubchem assays (depositor defined):AID1777, AID1785, AID1786, AID2133]; type: functional;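 further: imaging of beta-arrestin GFP recruitment into spots after receptor activation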
Chain of Mu-type opioid receptor (P35372 whole entry): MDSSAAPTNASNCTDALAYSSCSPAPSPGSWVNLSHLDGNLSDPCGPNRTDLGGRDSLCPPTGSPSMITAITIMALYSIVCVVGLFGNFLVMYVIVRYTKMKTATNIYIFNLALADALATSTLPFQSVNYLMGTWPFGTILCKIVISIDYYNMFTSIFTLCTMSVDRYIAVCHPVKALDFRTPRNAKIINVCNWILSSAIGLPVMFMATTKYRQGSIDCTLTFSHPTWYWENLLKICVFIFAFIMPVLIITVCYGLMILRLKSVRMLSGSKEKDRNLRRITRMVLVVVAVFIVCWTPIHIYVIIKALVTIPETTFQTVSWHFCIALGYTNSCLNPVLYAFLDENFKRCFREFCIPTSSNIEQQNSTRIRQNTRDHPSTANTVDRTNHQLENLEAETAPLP

[9] = molecular target: T3, Delta-type opioid receptor; assay: HTS Image-Based Screen for Agonists of the DOR Receptor. [Related pubchem assays (depositor defined):AID1777, AID1786, AID2133]; type: functional
BJ [10] = assay: cytotoxicity toward BJ-TERT fibroblasts, dose response, cell-based, RAS-independent, luminescence (AID 1933); type: functional; conditions: Homo sapiens
cells [11] = type: functional, cell-based
[12] = Luminescence Cell-Based Dose Response HTS to Identify Inhibitors of 5'UTR Stem-Loop Driven Prion Protein mRNA Translation in H4 Neuroglioblastoma Cells. [Related pubchem assays: 1827 (Project Summary), 1813 (Primary HTS)]; type: functional
[13] = inhibitors of SNCA 5'UTR-driven reporter translation, confirmation, H4 neuroglioma cells, luminescence (AID 1988); type: functional, cell-based
BJ [14] = assay: cells; type: functional, cell-based; conditions: Homo sapiens
[15] = Luminescence-based dose response cell-based high throughput screening assay for cytotoxic compounds using the IEC-6 intestinal epithelial cell line. [Related pubchem assays: 1858 (Summary AID.), 1825 (Counterscreen.), 1907 (Confirmation screen.)]; type: functional
cells [16] = type: functional, cell-based; remark: listed apart in the source
[17] = molecular target: T4, Kappa-type opioid receptor (Homo sapiens, UniProt P41145); type: functional
T4 sequence (P41145 whole entry): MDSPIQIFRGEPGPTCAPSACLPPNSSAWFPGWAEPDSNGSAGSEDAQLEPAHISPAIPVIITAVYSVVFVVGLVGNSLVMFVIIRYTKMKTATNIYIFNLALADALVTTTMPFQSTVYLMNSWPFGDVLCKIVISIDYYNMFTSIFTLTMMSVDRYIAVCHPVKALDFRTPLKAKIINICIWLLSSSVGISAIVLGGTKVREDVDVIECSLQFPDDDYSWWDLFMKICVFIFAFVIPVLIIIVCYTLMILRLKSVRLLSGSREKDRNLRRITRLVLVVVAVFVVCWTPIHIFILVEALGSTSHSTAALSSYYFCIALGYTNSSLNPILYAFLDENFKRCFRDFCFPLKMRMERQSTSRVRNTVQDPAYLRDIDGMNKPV

Beta-galactosidase = Beta-galactosidase (Escherichia coli, UniProt Q8VNN2); type: functional
Chain of Beta-galactosidase (Q8VNN2 whole entry): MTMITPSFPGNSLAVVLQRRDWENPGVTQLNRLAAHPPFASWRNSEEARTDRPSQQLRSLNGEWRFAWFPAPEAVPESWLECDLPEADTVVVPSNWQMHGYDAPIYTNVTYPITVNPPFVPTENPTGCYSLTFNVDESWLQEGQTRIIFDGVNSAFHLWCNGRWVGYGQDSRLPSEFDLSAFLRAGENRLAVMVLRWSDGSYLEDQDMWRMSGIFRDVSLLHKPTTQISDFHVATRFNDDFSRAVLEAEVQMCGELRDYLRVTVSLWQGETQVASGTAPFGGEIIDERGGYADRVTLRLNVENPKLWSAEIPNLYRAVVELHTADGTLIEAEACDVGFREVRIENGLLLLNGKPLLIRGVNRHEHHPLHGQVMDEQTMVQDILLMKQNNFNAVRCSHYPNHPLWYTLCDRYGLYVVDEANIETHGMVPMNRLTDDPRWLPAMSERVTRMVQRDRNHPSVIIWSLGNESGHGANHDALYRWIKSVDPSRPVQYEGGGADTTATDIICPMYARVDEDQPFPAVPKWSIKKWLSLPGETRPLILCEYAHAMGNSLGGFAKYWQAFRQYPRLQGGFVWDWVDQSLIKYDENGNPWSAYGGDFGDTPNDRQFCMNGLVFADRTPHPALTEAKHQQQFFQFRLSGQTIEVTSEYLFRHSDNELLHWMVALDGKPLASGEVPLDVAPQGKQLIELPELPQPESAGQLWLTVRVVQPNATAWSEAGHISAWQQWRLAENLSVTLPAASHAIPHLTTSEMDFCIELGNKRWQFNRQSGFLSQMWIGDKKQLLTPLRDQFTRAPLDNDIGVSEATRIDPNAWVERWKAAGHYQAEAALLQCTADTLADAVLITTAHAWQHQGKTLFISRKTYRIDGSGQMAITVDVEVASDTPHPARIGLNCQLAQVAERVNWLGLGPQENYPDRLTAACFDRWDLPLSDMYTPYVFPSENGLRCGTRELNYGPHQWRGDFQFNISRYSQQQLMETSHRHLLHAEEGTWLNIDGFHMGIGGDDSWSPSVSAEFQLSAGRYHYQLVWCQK

BJ [18] = assay: cytotoxicity toward BJ-TERT-LT-ST fibroblasts, dose response, cell-based, RAS-independent, luminescence (AID 1935); type: functional; conditions: Homo sapiens;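 further: BJ fibroblasts immortalized with TERT plus LT and ST oncogenes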
[19] = molecular target: T4, Kappa-type opioid receptor; type: functional; remark: listed apart in the source
[20] = cytotoxicity toward DRD oncogenic fibroblasts, dose response, cell-based, non-viral oncogenic, luminescence (AID 1934); type: functional; conditions: Homo sapiens
Caspase-3 = molecular target: T5, Caspase-3 (Homo sapiens, UniProt P42574); type: functional;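 further: Dose-response selectivity test against caspase-3 for candidate inhibitors of sentrin-specific proteases (SENPs)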
T5 sequence (P42574 whole entry): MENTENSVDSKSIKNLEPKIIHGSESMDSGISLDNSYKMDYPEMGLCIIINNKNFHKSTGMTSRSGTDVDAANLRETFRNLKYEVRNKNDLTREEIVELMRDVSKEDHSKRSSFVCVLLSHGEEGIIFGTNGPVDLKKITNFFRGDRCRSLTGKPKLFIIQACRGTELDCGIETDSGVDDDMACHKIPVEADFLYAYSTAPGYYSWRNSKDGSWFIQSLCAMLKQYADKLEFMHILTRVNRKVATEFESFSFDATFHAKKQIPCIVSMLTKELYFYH

[21] = molecular target: T6, Sentrin-specific protease 7 (Homo sapiens, UniProt Q9BQF6); type: functional;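 further: Luminescence-based dose-response confirmation of ultra-high-throughput screening hits, measuring inhibition of SENP7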
T6 sequence (Q9BQF6 whole entry): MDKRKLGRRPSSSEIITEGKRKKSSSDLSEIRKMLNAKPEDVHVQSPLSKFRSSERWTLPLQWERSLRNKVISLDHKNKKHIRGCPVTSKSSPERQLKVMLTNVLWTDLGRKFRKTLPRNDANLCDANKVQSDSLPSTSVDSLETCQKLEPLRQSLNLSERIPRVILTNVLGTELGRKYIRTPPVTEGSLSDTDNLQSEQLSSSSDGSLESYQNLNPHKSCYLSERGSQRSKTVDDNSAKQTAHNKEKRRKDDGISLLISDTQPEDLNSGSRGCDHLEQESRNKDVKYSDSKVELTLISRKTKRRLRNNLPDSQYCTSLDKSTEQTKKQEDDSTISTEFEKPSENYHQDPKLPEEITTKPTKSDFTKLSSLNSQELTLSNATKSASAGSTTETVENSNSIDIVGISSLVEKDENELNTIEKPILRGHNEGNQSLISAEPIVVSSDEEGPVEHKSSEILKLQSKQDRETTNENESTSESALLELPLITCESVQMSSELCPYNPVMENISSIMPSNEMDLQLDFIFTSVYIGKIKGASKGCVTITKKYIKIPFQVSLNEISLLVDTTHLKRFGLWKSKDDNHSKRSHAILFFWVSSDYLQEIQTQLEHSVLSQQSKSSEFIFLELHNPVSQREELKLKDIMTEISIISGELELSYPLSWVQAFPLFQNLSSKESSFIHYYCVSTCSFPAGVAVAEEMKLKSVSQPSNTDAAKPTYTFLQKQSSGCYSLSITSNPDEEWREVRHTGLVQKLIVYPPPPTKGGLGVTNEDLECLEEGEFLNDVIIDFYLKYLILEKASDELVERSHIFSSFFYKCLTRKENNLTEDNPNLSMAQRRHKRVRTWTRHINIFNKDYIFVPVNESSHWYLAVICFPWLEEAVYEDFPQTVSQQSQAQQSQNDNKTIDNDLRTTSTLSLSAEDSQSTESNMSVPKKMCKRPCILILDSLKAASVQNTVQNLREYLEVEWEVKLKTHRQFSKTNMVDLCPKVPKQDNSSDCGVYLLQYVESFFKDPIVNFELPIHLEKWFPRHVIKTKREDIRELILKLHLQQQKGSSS

[22] = molecular target: T7, Sentrin-specific protease 6 (Homo sapiens, UniProt Q9GZR1); type: functional;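 further: Luminescence-based dose-response confirmatory assay of SENP6 inhibition, following up an ultra-high-throughput screen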
T7 sequence (Q9GZR1 whole entry): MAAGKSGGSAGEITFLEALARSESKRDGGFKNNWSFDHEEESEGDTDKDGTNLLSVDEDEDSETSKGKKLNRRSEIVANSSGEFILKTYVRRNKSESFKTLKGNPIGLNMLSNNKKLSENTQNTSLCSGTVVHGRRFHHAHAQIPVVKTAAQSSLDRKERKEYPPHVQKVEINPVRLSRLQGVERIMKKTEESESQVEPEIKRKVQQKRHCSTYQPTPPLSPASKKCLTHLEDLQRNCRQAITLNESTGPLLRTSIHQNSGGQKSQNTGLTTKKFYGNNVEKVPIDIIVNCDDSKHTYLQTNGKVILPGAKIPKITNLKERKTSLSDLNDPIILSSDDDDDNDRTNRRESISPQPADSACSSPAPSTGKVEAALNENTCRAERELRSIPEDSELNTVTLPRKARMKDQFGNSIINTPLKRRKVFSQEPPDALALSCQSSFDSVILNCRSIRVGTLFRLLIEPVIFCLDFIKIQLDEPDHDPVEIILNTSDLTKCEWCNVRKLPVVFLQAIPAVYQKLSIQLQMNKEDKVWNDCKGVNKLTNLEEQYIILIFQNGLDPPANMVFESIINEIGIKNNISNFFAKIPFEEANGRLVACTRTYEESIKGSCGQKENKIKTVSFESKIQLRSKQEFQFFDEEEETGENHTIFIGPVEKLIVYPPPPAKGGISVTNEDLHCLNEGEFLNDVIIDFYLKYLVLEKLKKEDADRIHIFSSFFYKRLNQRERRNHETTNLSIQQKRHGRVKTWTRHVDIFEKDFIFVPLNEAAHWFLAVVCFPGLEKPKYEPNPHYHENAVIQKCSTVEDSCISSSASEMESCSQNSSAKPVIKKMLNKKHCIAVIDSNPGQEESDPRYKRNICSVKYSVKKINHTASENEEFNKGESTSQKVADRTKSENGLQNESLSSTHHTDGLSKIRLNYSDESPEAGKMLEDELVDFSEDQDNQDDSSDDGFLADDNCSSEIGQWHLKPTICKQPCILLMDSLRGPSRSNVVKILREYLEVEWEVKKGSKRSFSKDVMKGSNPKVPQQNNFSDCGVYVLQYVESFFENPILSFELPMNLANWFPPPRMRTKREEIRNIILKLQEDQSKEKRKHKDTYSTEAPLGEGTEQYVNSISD

[23] = molecular target: T8, Sentrin-specific protease 8 (Homo sapiens, UniProt Q96LD8); type: functional;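 further: luminescence read-out of SENP8 inhibition, dose-response confirmation following an ultra-high-throughput screen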
T8 sequence (Q96LD8 whole entry): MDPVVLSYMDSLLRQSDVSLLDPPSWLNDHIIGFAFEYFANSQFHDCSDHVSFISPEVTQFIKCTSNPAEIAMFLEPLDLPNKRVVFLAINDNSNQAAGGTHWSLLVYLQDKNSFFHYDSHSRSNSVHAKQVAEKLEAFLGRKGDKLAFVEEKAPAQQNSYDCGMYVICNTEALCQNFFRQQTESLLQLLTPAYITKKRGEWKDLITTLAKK

INS1 = assay: beta cell apoptosis inhibitors, cytokine rescue, dose response, luminescence, retest (AID 449756); type: functional, cell-based; conditions: Rattus norvegicus;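 further: cell death triggered by IL-1 beta plus TNF-alpha plus IFN-gamma mixture; protective hits raise ATP signal compared with cytokine alone wells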

Chain of Intestinal-type alkaline phosphatase (Homo sapiens, UniProt P09923) (P09923 whole entry): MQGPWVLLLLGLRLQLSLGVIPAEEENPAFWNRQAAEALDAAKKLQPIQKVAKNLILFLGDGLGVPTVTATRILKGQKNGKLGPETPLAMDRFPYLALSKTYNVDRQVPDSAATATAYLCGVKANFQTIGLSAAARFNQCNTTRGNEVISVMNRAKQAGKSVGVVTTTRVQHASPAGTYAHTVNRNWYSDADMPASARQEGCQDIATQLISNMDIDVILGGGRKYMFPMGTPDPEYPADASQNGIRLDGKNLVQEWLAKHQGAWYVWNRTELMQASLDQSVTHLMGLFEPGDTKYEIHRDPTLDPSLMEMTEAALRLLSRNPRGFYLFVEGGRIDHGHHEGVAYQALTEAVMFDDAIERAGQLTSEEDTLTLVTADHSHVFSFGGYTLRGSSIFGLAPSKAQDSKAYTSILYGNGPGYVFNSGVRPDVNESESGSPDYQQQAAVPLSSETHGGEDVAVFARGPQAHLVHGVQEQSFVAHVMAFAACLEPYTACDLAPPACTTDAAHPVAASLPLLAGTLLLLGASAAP

With Nc1cc2nc3ccccc3oc-2cc1=O the EC50 [1] was 72.1 µM (active), the EC50 [2] was 64.1 µM (active) and the EC50 [3] was 74.5 µM (active).

For O=C(CCSc1nnc2ccc3ccccc3n12)Nc1ccc(F)cc1, the EC50 [4] was 24.3 µM (inactive), the EC50 [5] was > 79.4 µM (not active) and the EC50 [6] was 20.9 µM (not active). For the same compound, the IC50 (Coagulation factor XII) was > 50 µM (inactive).

With COc1cccc2sc(Nc3nc(-c4ccccn4)cs3)nc12 the IC50 [7] was > 32 µM (inactive), the EC50 [8] was 84.1 µM (active) and the EC50 (Mu-type opioid receptor) was > 32 µM (inactive). For the same compound, the EC50 [9] was > 32 µM (inactive), the EC50 (BJ [10]) was 12.3 µM (inconclusive) and the EC50 (cells [11]) was 64.5 µM (active). The EC50 [12] was 0.126 µM (active), the EC50 [13] was 2.23 µM (active) and the EC50 (BJ [14]) was 12.2 µM (active). The IC50 [15] was 1.4 µM (active), the EC50 (cells [16]) was 6.91 µM (active) and the IC50 [17] was 1.62 µM (active). For the same compound, the EC50 (Beta-galactosidase) was > 31.5 µM (inactive), the EC50 (BJ [18]) was 8.02 µM (inconclusive) and the IC50 [19] was > 32 µM. The EC50 [20] was 17.5 µM (inconclusive), the IC50 (Caspase-3) was 31.7 µM (active) and the IC50 [21] was 4.38 µM (active). For the same compound, the IC50 [22] was 6.04 µM (active), the IC50 [23] was > 100 µM (inactive) and the AC50 (INS1) was 1.17 µM (active).
